Measured values published in ChEMBL document CHEMBL1131914, “Carbohydroxamido-oxazolidines: antibacterial agents that target lipid A biosynthesis” (Bioorg Med Chem Lett, 1999).
Values after ≈ are worked out from the molar mass of the structure shown. Active and inactive are the calls of the source. The rule behind the calls is not given here.

test system: Escherichia coli; assay: Antibacterial activity against Escherichia coli mutant (envA1) was determined; assay type: functional; conditions: not given

| SMILES | MIC |
| --- | --- |
| CCCc1cccc(C2=N[C@@H](C(=O)NO)CO2)c1 | 0.06 µg/mL (≈ 0.242 µM) |
| CCCc1cc(C2=NC(C(=O)NO)CO2)cc(OC)c1OC (configuration not stated) | < 0.05 µg/mL |
| O=C(NO)C1COC(c2ccccc2)=N1 (configuration not stated) | 3.6 µg/mL (≈ 17.5 µM) |
| CCCc1cc(C2=NC(C(=O)NO)CO2)ccc1OC (configuration not stated) | 0.1 µg/mL (≈ 0.359 µM) |
| CCCc1cc(C2=NC(C(=O)NO)CO2)cc(OC)c1O (configuration not stated) | 0.39 µg/mL (≈ 1.33 µM) |
| CCCc1cc(C2=NC(C(=O)NO)CO2)cc(OCc2ccccc2)c1OC (configuration not stated) | < 0.008 µg/mL |
| COc1ccc(C2=N[C@@H](C(=O)NO)CO2)cc1 | 0.25 µg/mL (≈ 1.06 µM) |
| CCCc1cc(C2=NC(C(=O)NO)CO2)cc(O)c1OC (configuration not stated) | 0.06 µg/mL (≈ 0.204 µM) |

test system: Escherichia coli; assay: Antibacterial activity of against Escherichia coli mutant (envA1) was determined.; assay type: functional, organism-based; conditions: not given

| SMILES | MIC |
| --- | --- |
| O=C(NO)C1COC(c2ccncc2)=N1 (configuration not stated) | inactive |
| Cc1cccc(C2=NC(C(=O)NO)CO2)c1 (configuration not stated) | inactive |
| COc1cc(C2=N[C@@H](C(=O)NO)CO2)cc(OC)c1OC | inactive |
| Cc1ccc(C2=NC(C(=O)NO)CO2)cc1 (configuration not stated) | inactive |
| CCc1ccc(C2=N[C@@H](C(=O)NO)CO2)cc1 | inactive |
| O=C(NO)C1COC(c2cccnc2)=N1 (configuration not stated) | inactive |
| CCCc1ccc(C2=N[C@@H](C(=O)NO)CO2)cc1 | inactive |
| Cc1ccccc1C1=NC(C(=O)NO)CO1 (configuration not stated) | inactive |
| O=C(NO)[C@H]1COC(c2ccco2)=N1 | inactive |
| O=C(NO)C1COC(c2c(Cl)cccc2Cl)=N1 (configuration not stated) | inactive |

test system: Escherichia coli; assay: Antibacterial activity against Escherichia coli mutant (envA1) was determined; Ranges from 0.008-0.016; assay type: functional; conditions: not given

| SMILES | MIC |
| --- | --- |
| CCCc1cc(C2=N[C@@H](C(=O)NO)CO2)cc(OC)c1OC | 8 ng/mL (≈ 0.0259 µM) |

test system: Escherichia coli; assay: Antibacterial activity against Escherichia coli was determined; assay type: functional; conditions: not given

| SMILES | MIC |
| --- | --- |
| CCCc1cccc(C2=N[C@@H](C(=O)NO)CO2)c1 | 12.5 µg/mL (≈ 50.3 µM) |
| CCCc1cc(C2=NC(C(=O)NO)CO2)ccc1OC (configuration not stated) | 12.5 µg/mL (≈ 44.9 µM) |
| CCCc1cc(C2=NC(C(=O)NO)CO2)cc(OC)c1O (configuration not stated) | > 100 µg/mL |
| CCCc1cc(C2=NC(C(=O)NO)CO2)cc(OCc2ccccc2)c1OC (configuration not stated) | 25 µg/mL (≈ 65 µM) |
| CCCc1cc(C2=NC(C(=O)NO)CO2)cc(O)c1OC (configuration not stated) | 12.5 µg/mL (≈ 42.5 µM) |

test system: Escherichia coli; assay: Antibacterial activity against Escherichia coli was determined; Ranges from 1-3; assay type: functional; conditions: not given

| SMILES | MIC |
| --- | --- |
| CCCc1cc(C2=N[C@@H](C(=O)NO)CO2)cc(OC)c1OC | 1 µg/mL (≈ 3.24 µM) |

test system: Escherichia coli; assay: Antibacterial activity against Escherichia coli was determined; Ranges from 200-400; assay type: functional; conditions: not given

| SMILES | MIC |
| --- | --- |
| O=C(NO)C1COC(c2ccccc2)=N1 (configuration not stated) | 200 µg/mL (≈ 970 µM) |

test system: Escherichia coli; assay: Antibacterial activity against Escherichia coli was determined; Ranges from 25-50; assay type: functional; conditions: not given

| SMILES | MIC |
| --- | --- |
| COc1ccc(C2=N[C@@H](C(=O)NO)CO2)cc1 | 25 µg/mL (≈ 106 µM) |

test system: Escherichia coli; assay: Antibacterial activity against Escherichia coli was determined; Ranges from […]; assay type: functional; conditions: not given

| SMILES | MIC |
| --- | --- |
| CCCc1cc(C2=NC(C(=O)NO)CO2)cc(OC)c1OC (configuration not stated) | 3 µg/mL (≈ 9.73 µM) |

test system: Pseudomonas; assay: Antibacterial activity against Pseudomonas was determined; NA=not active; assay type: functional, organism-based; conditions: not given

| SMILES | MIC |
| --- | --- |
| CCCc1cc(C2=N[C@@H](C(=O)NO)CO2)cc(OC)c1OC | inactive |

test system: Serratia; assay: Antibacterial activity against Serratia was determined; NA=not active; assay type: functional, organism-based; conditions: not given

| SMILES | MIC |
| --- | --- |
| CCCc1cc(C2=N[C@@H](C(=O)NO)CO2)cc(OC)c1OC | inactive |

biological target: T1, UDP-3-O-acyl-N-acetylglucosamine deacetylase (Escherichia coli K-12, UniProt P0A725); assay: Inhibition of UDP-3-O-[R-3-hydroxymyristoyl]-GlcNAc deacetylase using coupled radiochemical assay (WAVE) in Escherichia coli strain JB 1104; conditions: not given
T1 sequence (P0A725 whole entry): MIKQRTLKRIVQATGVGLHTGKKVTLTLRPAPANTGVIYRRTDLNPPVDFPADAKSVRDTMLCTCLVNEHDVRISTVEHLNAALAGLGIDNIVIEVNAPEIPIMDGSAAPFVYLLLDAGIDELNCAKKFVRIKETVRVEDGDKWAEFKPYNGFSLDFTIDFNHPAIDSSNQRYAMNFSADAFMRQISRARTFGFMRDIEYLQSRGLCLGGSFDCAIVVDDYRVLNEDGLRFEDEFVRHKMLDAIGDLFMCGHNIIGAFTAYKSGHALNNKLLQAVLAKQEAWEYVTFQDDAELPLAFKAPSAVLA

| SMILES | IC50 |
| --- | --- |
| O=C(NO)C1COC(c2c(Cl)cccc2Cl)=N1 (configuration not stated) | Not Active |

same assay, conditions: read-out: IC50

| SMILES | IC50 |
| --- | --- |
| CCCc1cccc(C2=N[C@@H](C(=O)NO)CO2)c1 | 50 nM |
| O=C(NO)C1COC(c2ccccc2)=N1 (configuration not stated) | 3000 nM |
| Cc1cccc(C2=NC(C(=O)NO)CO2)c1 (configuration not stated) | 1100 nM |
| Cc1ccc(C2=NC(C(=O)NO)CO2)cc1 (configuration not stated) | 1700 nM |
| CCc1ccc(C2=N[C@@H](C(=O)NO)CO2)cc1 | 200 nM |
| O=C(NO)[C@@H]1COC(c2ccccc2)=N1 | 360000 nM |
| CN(O)C(=O)[C@H]1COC(c2ccccc2)=N1 | > 400000 nM |
| CCCc1ccc(C2=N[C@@H](C(=O)NO)CO2)cc1 | 100 nM |
| COc1ccc(C2=N[C@@H](C(=O)NO)CO2)cc1 | 300 nM |
| Cc1ccccc1C1=NC(C(=O)NO)CO1 (configuration not stated) | 2600 nM |
| O=C(NO)[C@H]1COC(c2ccco2)=N1 | 9000 nM |
| CN(OCc1ccccc1)C(=O)[C@H]1COC(c2ccccc2)=N1 | > 400000 nM |
| O=C(NO)[C@H]1COC(c2ccccc2)=N1 | 1500 nM |
| O=C(O)C1COC(c2ccccc2)=N1 (configuration not stated) | > 400000 nM |
| COC(=O)C1COC(c2ccccc2)=N1 (configuration not stated) | > 400000 nM |

biological target: T1, UDP-3-O-acyl-N-acetylglucosamine deacetylase; assay: Inhibition of UDP-3-O-[R-3-hydroxymyristoyl]-GlcNAc deacetylase using direct deacetylase assay (DEACET) in Escherichia coli strain JB 1104; conditions: not given

| SMILES | IC50 |
| --- | --- |
| CCCc1cccc(C2=N[C@@H](C(=O)NO)CO2)c1 | 1600 nM |
| CCCc1cc(C2=NC(C(=O)NO)CO2)cc(OC)c1OC (configuration not stated) | 50 nM |
| O=C(NO)C1COC(c2ccncc2)=N1 (configuration not stated) | 100000 nM |
| O=C(NO)C1COC(c2ccccc2)=N1 (configuration not stated) | 8500 nM |
| CCCc1cc(C2=NC(C(=O)NO)CO2)ccc1OC (configuration not stated) | 300 nM |
| COc1cc(C2=N[C@@H](C(=O)NO)CO2)cc(OC)c1OC | 300 nM |
| CCCc1cc(C2=N[C@@H](C(=O)NO)CO2)cc(OC)c1OC | 30 nM |
| CCc1ccc(C2=N[C@@H](C(=O)NO)CO2)cc1 | 600 nM |
| O=C(NO)C1COC(c2cccnc2)=N1 (configuration not stated) | 100000 nM |
| CCCc1cc(C2=NC(C(=O)NO)CO2)cc(OC)c1O (configuration not stated) | 1400 nM |
| O=C(NO)C1COC(c2ccccc2Cl)=N1 (configuration not stated) | 30000 nM |
| CCCc1cc(C2=NC(C(=O)NO)CO2)cc(OCc2ccccc2)c1OC (configuration not stated) | 20 nM |
| COc1ccc(C2=N[C@@H](C(=O)NO)CO2)cc1 | 1400 nM |
| CCCc1cc(C2=NC(C(=O)NO)CO2)cc(O)c1OC (configuration not stated) | 100 nM |
| O=C(NO)[C@H]1COC(c2ccccc2)=N1 | 6000 nM |
| O=C(NO)C1COC(c2c(Cl)cccc2Cl)=N1 (configuration not stated) | > 200000 nM |
